Publication PMC3750255, “Inhibition of Mycoplasma pneumoniae growth by FDA-approved anticancer and antiviral nucleoside and nucleobase analogs” (BMC Microbiology, 2013)

Key:
TK in Mpn extracts = target: T1, TK in Mpn extracts (Mycoplasmoides pneumoniae, UniProt P75070); test: Inhibition of dT phosphorylation in Mpn protein extracts; assay type: biochemical; settings: 10 μM tritium labelled thymidine; read-out: IC50 Mpn extracts
T1 construct: endogenous in cells; host or cells: Mycoplasma pneumoniae M129 total protein extract
T1 sequence (P75070 1-191): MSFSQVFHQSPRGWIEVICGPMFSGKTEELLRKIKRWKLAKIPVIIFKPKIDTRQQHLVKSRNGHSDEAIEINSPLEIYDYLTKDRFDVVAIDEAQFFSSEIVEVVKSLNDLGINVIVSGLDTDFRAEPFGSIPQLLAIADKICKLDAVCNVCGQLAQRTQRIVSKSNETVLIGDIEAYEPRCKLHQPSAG
Procedure: Both TFT and 5FdU are substrates of Mycoplasma and human TKs, as described above and earlier studies.
Thymidine kinase assay was performed using tritium labelled thymidine ([^3H]-dT) as substrate and various concentrations of the inhibitors essentially as previously described to determine the IC50 values of TFT and 5FdU.

Mpn TS = test: TS activity in total protein extracts of Mpn cultured with TFT; assay type: cell-based; settings: various concentrations of TFT, 70 hours culture
Procedure: Total proteins were extracted from these cultures and used to determine the TK and TS activity.
Mpn wild type cells were cultured in the presence of [^3H]-dT and different concentrations of TFT. The cells were incubated at 37°C for 70 hours and harvested. The total uptake and incorporation of [^3H]-dT were analysed, and TK and TS activity were determined in total protein extracts.
To determine the effect of TFT on TK and TS activity, Mpn wild type cells were cultured in 75 cm^2 tissue culture flasks containing 50 ml medium, inoculated with 3 ml of stock culture (1 × 10^9 cfu/ml), in the presence of [^3H]-dT (1 μCi ml^-1) and different concentrations of TFT. After 70 hours at 37°C the cultures were harvested and divided to two aliquots, one was used to determine total uptake/metabolism of radiolabeled dT and total proteins were extracted from the other aliquot and used to measure TK and TS activity using [^3H]-dT and [5-^3H]-dUMP as substrates.

[1] = system: M. pneumoniae thyA mutant (lacking TS activity); test: microbe, parasite or virus in culture; assay type: cell-based, Mycoplasma pneumoniae; settings: minimal concentration producing 90% inhibition; thyA mutant Mpn
Procedure: A series dilution of each compound in Mycoplasma growth medium was added to Mpn cultures in 96-well plates. The plates were sealed and incubated at 37°C. Mpn growth was monitored by using growth index value e.g. the ratio of absorbance at 450 nm and 560 nm of the culture medium. Thirty nucleoside and nucleobase analogs and a nucleoside transporter inhibitor were included, and two Mpn strains, wild type and a thyA mutant (lacking TS activity), were used.
Nucleoside and nucleobase analogs were dissolved in dimethyl sulfoxide (DMSO) as stock solutions and diluted with Mpn culture medium to the desired concentration immediately prior to use.
Mpn laboratory strain M129 wild type and a thyA mutant strain [31] were used in this study. Mpn was cultured at 37°C in a CO2 incubator using 75 cm^2 tissue culture flasks containing 50 ml Hayflick’s medium, and harvested at day 4 when the medium color change was observed. The cells were harvested and the pellet was resuspended in 6 ml fresh medium and the cfu/ml was determined by serial dilution (10-fold) and plating on broth agar plate. Colonies was counted and cfu/ml was calculated.
Inhibition studies were performed in 96-well plates containing 200 μl Mpn culture (approximately 10^6 cfu ml^-1) in Hayflick’s medium and 200 μl each compound in series dilutions (2-fold) with the growth medium, with three to four replicas. The plates were sealed with clear adhesive sheets and incubated at 37°C incubator. Absorbance ratio at 450 nm and 560 nm was used as Mpn growth index, which was measured daily, and by visual detection for at least 8 days, as previously described. […] The MICs (minimal inhibitory concentration required to inhibit Mpn growth to 90%) were determined as the lowest concentration at which the growth index was ≈ 10% of the control values (at the time when the control culture medium color turned yellow), essentially as described.

Mpn wild type cells = test: Uptake and metabolism of tritium labelled natural nucleoside and nucleobases in the presence of analogs; assay type: cell-based, Mycoplasma pneumoniae
Procedure: The cells were harvested and analyzed essentially as described. Analogs used were dipyridamole, 6-thioguanine (6-TG), trifluorothymidine (TFT), gemcitabine (dFdC) and 5-fluorodeoxyuridine (5FdU). Total uptake is the percent of radioactivity recovered in the cells divided by total radioactivity added to the growth medium. Percent of acid insoluble (radioactivity found in DNA and RNA) was also calculated. These experiments were done more than three times and data are given as mean ± SD.

[2] = 10 μM analog, 70 hours, 37°C, radioactivity in cells / total added
[3] = 10 μM analog, 70 hours, acid insoluble fraction / total in cells

O=c1[nH]c(=O)n([C@H]2C[C@H](O)[C@@H](CO)O2)cc1C(F)(F)F [Trifluorothymidine (TFT), Trifluorothymidine]
IC50 (TK in Mpn extracts): 9.1 ± 2.9 µM | TS activity (in words) (Mpn TS): unchanged | thyA mutant MIC [1]: 1.8 µg/mL | Stimulation of [3H]-dT uptake (Mpn wild type cells; 10 μM analog versus control): 2 fold | [3H]-Ade Total uptake (Mpn wild type cells; [2]): 0.43±0.01% | [3H]-Gua Total uptake (Mpn wild type cells; [2]): 0.19±0.02% | [3H]-Hx Total uptake (Mpn wild type cells; [2]): 0.011± 0.001% | [3H]-Ura Total uptake (Mpn wild type cells; [2]): 0.11±0.002% | [3H]-dT Total uptake (Mpn wild type cells; [2]): 18.2±0.6% | [3H]-Ade Incorporation (Mpn wild type cells; [3]): 48±2% | [3H]-Gua Incorporation (Mpn wild type cells; [3]): 85±4% | [3H]-Hx Incorporation (Mpn wild type cells; [3]): 67±1% | [3H]-Ura Incorporation (Mpn wild type cells; [3]): 27±0.2% | [3H]-dT Incorporation (Mpn wild type cells; [3]): 97.4±0.5%
